This is an account of results in publication PMC9692542, “First Report of the Molecular Mechanism of Resistance to Tribenuron-Methyl in Silene conoidea L” (Plants, 2022).

For this experiment, the system named is T1, ALS (acetolactate synthase).
T1 construct: native enzyme in leaf extract, not purified
Put plainly: in vitro ALS activity of leaf extract, colorimetric acetoin ([…] nm). It counts as biochemical, Silene conoidea. The conditions noted are these: leaf extract of susceptible population; read-out: I50 (μM) ^c.

In the case of `COC(=O)c1ccccc1S(=O)(=O)NC(=O)N(C)c1nc(C)nc(OC)n1` [tribenuron-methyl, methyl 2-[[[[N-(4-methoxy-6-methyl-1,3,5triazin-2-yl)methyl-amino]carbonyl]amino]sulfonyl]benzoate], the IC50 amounted to 11.6 ± 1 µM.
